Results as given in patent US20070299084A1, “Indole Derivatives Useful for Treating Resistance to Antitumor Agents” (NIKEM RESE S.R.L., priority 2004, published 2007).
Read-outs that look alike come from different tables or passages of the source. Marks after values point to notes of the source that are not given here.

Assays:
[1] = system: HT29 cells (human colon carcinoma); experiment: Antiproliferative activity, 72 h treatment, SRB assay, HT29; type: cell-based; details: 72 h. treatment, read-out: Antiproliferative activity (IC50 ± S.D., μM) HT-29
[2] = system: HT29/Mit cells (mitoxantrone-resistant human colon carcinoma, BCRP overexpression); experiment: Antiproliferative activity, 72 h treatment, SRB assay, HT29/Mit
Method: HT29 and HT29/Mit (line obtained by prolonged exposure to mitoxantrone, and characterised by overerexpression of BCRP, which confers cross resistance to topotecan, irinotecan and to its metabolite SN38): maintained in McCoy 5A medium+10% FCS.
(§1) The cells (HT29 and HT29/Mit:. 40,000 cells/ml, LoVo, LoVo/Dx and HCT116: 50,000 cells/ml) are seeded in 100 μl of the respective culture media in 96-well plates. 24 hours after seeding, an aliquot (10 μl) of drug at the various concentrations is added. In the samples in which the effect of the combination of two compounds is to be tested the inhibitor is added immediately before the cytotoxic. For each dose or combination of doses/drugs the effect of the treatment is determined in 4-8 replicates.
(§2) After 72 hours of treatment the antiproliferative effect is evaluated using the sulforhodamine B (SRB) assay: the cells are fixed by adding 25 μl of 50% TCA to each well and left for 1 hour at 4° C. After washing them with water and allowing them to dry, 100 μl of 0.4% SRB in 1% acetic acid are added and left for 30 minutes at room temperature. After 4 washes in 1% acetic acid, they are left to dry, then the dye fixed by the proteins is dissolved under basic conditions with 100 μl 10 mM cold Tris and the solution is read using a spectrophotometer at 550 nm.
(§3) Percentage cell growth is calculated as the optical density of treated samples compared to the optical density of controls (untreated cells).
(§4) The Combination Index (C.I.) was determined according to Kern's method, 1988 (who continued from Drewinko B, 1976) (Kern D. H., Cancer Res. 48, 117-121, 1988; Drewinko B., Cancer Biochem. Biophys. 1, 187-195, 1976) by means of the following formula: […], where SFa and SFb are the fractions of cells surviving to treatment with compound a and b, respectively; SFab is the fraction surviving to the combination of compounds a and b.

[3] = system: HepG2 cells (human hepatic carcinoma); experiment: Antiproliferative activity, 48 h treatment, ATPlite luminescence assay, HepG2; type: cell-based
Method: HepG2: maintained in EMEM medium+10% FCS.
(§5) 24 hours after seeding, an aliquot (10 μl) of the drug at the various concentrations is added (for each concentration there are 3 replicates). After 48 hours of treatment the antiproliferative effect is evaluated with a luminescence assay (Perkin Elmer Life Sciences ATPlite):
(§6) 50 μl of a lysis solution are added to each well followed by an equal volume of a solution containing luciferase and D-luciferin. The ATP present in all the metabolically active cells brings about the transformation reaction of D-luciferin, catalysed by luciferase, to produce a luminescent signal as described in the following scheme: ATP+D-luciferin+O2→Oxyluciferin+AMP+PPi+CO2+Light
(§7) The luminescence produced (expressed in counts per second, CPS) is measured by means of a microplate scintillation analyzer (Perkin Elmer Life Sciences Top Count).
(§8) Percentage inhibition of luminescence in the treated cells compared to the control is calculated; concentration-response curves are then analysed using Grafit v.5.0.

[4] = target: Vacuolar ATPase (bafilomycin sensitive ATPase activity) (Homo sapiens, UniProt P27449+Q13488); experiment: Vacuolar ATPase inhibition in human osteoclastoma (hOc) microsomal fraction; type: biochemical; details: 30 min, 37° C., read-out: v-ATPase Activity (IC50, μM) hOc
Chain of Vacuolar ATPase (bafilomycin sensitive ATPase activity) (P38606 whole entry): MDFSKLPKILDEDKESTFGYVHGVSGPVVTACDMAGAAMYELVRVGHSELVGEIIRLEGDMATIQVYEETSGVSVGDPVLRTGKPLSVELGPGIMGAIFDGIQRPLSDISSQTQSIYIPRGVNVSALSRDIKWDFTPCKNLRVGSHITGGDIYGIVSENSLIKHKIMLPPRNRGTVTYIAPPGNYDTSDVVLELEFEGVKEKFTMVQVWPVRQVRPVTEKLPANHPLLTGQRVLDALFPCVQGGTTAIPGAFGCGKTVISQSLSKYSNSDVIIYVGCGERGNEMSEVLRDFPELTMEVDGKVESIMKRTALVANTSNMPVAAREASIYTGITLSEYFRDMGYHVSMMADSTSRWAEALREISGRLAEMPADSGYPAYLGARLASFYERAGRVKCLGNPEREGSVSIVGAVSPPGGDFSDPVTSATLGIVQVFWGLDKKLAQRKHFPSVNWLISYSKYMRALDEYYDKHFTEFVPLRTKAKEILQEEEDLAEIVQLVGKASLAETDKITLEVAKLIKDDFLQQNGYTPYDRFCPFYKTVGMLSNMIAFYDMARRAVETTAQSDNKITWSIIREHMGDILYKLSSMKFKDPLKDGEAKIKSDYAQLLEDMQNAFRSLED
Chain of Vacuolar ATPase (bafilomycin sensitive ATPase activity) (Q13488 whole entry): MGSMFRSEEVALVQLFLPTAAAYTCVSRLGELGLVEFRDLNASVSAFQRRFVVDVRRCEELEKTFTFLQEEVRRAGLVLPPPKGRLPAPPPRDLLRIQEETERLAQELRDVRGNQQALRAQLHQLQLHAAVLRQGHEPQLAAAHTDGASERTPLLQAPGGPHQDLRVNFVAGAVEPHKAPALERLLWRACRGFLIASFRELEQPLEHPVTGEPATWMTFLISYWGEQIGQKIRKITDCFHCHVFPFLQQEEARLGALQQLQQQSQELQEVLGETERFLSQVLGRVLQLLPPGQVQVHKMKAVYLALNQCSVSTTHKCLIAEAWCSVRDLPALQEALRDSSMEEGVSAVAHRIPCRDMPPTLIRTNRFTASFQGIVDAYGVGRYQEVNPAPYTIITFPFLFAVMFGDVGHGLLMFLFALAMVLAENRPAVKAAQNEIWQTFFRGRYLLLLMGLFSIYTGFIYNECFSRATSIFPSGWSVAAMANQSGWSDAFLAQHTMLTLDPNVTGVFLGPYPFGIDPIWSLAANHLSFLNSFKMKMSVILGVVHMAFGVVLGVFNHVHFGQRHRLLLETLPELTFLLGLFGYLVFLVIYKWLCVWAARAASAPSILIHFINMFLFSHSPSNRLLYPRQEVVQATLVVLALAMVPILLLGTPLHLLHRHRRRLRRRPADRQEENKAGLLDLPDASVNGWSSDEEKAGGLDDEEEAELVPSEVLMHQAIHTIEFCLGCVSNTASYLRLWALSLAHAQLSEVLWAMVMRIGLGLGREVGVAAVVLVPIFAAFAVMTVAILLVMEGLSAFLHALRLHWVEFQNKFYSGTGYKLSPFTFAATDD
Chain of Vacuolar ATPase (bafilomycin sensitive ATPase activity) (P27449 whole entry): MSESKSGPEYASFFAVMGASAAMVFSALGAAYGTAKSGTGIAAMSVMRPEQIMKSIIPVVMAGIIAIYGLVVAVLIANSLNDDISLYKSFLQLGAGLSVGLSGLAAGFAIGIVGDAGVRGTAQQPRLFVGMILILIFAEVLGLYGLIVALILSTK
Method: 1.1 Determination of Vacuolar ATPase Inhibition in Human Osteoclastoma (hOc)
Osteoclast-like giant cells isolated from human osteoclastoma are homogenized using a glass-teflon homogeniser (1000 rpm) and the material is centrifuged for 20 minutes at 6000 g. The resultant pellet is resuspended and centrifuged at 100000 g for 60 minutes to sediment the microsomal fraction. The resultant pellet is resuspended in medium at pH 7.4 and stored under liquid nitrogen.
Inhibition of bafilomycin sensitive ATPase activity is assayed by measuring the release of inorganic phosphate during 30 minutes of incubation, at 37° C., of the human osteoclastoma microsomal fraction in 96-well plates. The reaction medium contains 1 mM ATP, 10 mM Hepes-Tris buffer pH 8, 50 mM KCl, 5 μM valinomycin, 5 μM nigericin, 1 mM CDTA-Tris, 100 μM ammonium molybdate, 0.2 M sucrose and the microsomal fraction ([…] protein/ml). The reaction is initiated by adding MgSO4 and terminated, after 30 minutes, by adding 4 volumes of the reagent malachite green, prepared according to Chan K., Anal. Biochem. 157, 375-380, 1986.

[5] = system: LoVo cells (human colon carcinoma); experiment: Antiproliferative activity, 72 h treatment, SRB assay, LoVo; type: cell-based; details: 72 h. treatment; read-out: Antiproliferative activity (IC50 ± S.D., μM) LoVo
From the text: (§9) LoVo and LoVo/Dx (line obtained by prolonged exposure to doxorubicin and characterised by overerexpression of P-glycoprotein, which confers resistance to doxorubicin): maintained in HAM-F12 medium+10% FCS.

[6] = system: LoVo/Dx cells (doxorubicin-resistant human colon carcinoma, P-glycoprotein overexpression); experiment: Antiproliferative activity, 72 h treatment, SRB assay, LoVo/Dx; type: cell-based; details: 72 h. treatment; read-out: Antiproliferative activity (IC50 ± S.D., μM) LoVo/Dx
From the text: as §9

[7] = system: HCT116 cells (human colon carcinoma); experiment: Antiproliferative activity, 72 h treatment, SRB assay, HCT116; type: cell-based; details: 72 h. treatment; read-out: Antiproliferative activity (IC50 ± S.D., μM) HCT116
Method: HCT116 maintained in RPMI 1640 medium+10% FCS.
as §1, §2, §3, §4

[8] = system: SH-SY5Y cells (human neuroblastoma); experiment: Antiproliferative activity, 48 h treatment, ATPlite luminescence assay, SH-SY5Y; type: cell-based; details: 48 h. treatment; read-out: Antiproliferative activity (IC50 ± S.D., μM) SHSY-5Y
Method: (§10) SH-SY5Y and SK-N-BE(2): maintained in HAM-F12 medium+10% FCS.
as §5, §6, §7, §8

[9] = system: SK-N-BE(2) cells (human neuroblastoma); experiment: Antiproliferative activity, 48 h treatment, ATPlite luminescence assay, SK-N-BE(2); type: cell-based; details: 48 h. treatment; read-out: Antiproliferative activity (IC50 ± S.D., μM) SK-N-BE(2)
Method: as §10, §5, §6, §7, §8

[10] = system: A2780 cells (human ovarian carcinoma); experiment: Antiproliferative activity, 48 h treatment, ATPlite luminescence assay, A2780; type: cell-based; details: 48 h. treatment; read-out: Antiproliferative activity (IC50 ± S.D., μM) A2780
Method: as §5, §6, §7, §8

[11] = system: HT29/Mit human colon carcinoma xenografts; experiment: HT29/Mit human colon carcinoma xenografts, antitumor activity; type: in vivo, athymic Swiss nude mice; details: HT29/Mit xenograft, p.o.; topotecan 15 mg/Kg every 4 days for 3 administrations; compound of example 2 30 mg/kg; alone or combined
Method: Female athymic Swiss nude mice (8-10 weeks old) (Charles River, Calco, Italy) were used for the experiments. The animals were maintained at constant temperature and humidity, and were allowed to eat and drink freely. The experimental protocol was approved by the Ethics Committee for Animal Experimentation of the Istituto Nazionale Tumori of Milan.
The antitumour effectiveness of the compounds of the invention under discussion was tested on athymic mouse models implanted with HT29 and/or HT29/Mit tumour cells: this latter variety is highly resistant to topotecan treatment. The tumour cells were implanted in vivo via subcutaneous injection of 10^7 cells taken from in vitro cultures. Randomized groups of five mice with bilateral subcutaneous tumours were used for the experiment.
Topotecan or other known antitumour agents (dissolved in distilled water or an appropriate solvent) and the compounds of the invention (dissolved in Cremophor EL:ethanol:saline solution in the proportions 5:5:90, or in an appropriate solvent) were administered orally from the third day, alone or in combination, in agreement with a treatment scheme selected in an appropriate manner depending on the type of compound to be studied.
The weight (or volume) of the tumour in treated mice compared to controls is represented graphically on the y-axis against time (x-axis).

[12] = system: H460 primary tumor; experiment: H460 human non-small cell lung carcinoma xenograft, antitumor activity on the primary tumor; type: in vivo, athymic Swiss nude mice; details: H460 s.c., p.o. for 8 weeks, topotecan 1 mg/kg, compound of example 2 30 mg/kg
Method: Female athymic Swiss nude mice (8-10 weeks old) (Charles River, Calco, Italy) were used for the experiments, as described above.
H460 cells were injected i.p. into nude mice, adapted to grow as ascitis and maintained in vivo by i.p. passages (5×10^6 cells/mouse in 0.5 ml PBS) (Pratesi G., Br. J. Cancer 63, 71-74, 1991). Briefly, cells were collected from the donor mice about 7 days after inoculum. After washing, cell number and viability were determined by trypan blue exclusion. Such procedure allowed to obtain a single cell suspension easily available for s.c or i.v. injection.
(§11) The effects of the compounds of the invention and/or topotecan on the growth of primary tumors and spontaneous lung metastasis were tested in mice inoculated s.c. in the right flank with H460 ascitic tumor cells (2×10^6/mouse). Each control or drug-treated group included 9-11 mice. The s.c. tumor growth was followed by biweekly measurements of tumor diameters with a Vernier caliper. Drug treatment was delivered orally, for 8 weeks, from day 1. Topotecan was delivered at the dose of 1 mg/kg and compounds of the invention were delivered at the dose of 30 mg/kg; in the combination group the compounds of the invention were delivered almost 1 hour after topotecan treatment. Control mice were solvent-treated orally in parallel with drug treatments.
(§12) Drug efficacy was assessed as mean percentage tumor weight inhibition in drug-treated versus control mice expressed as tumor weight inhibition % (TWI %)=100−(mean tumor weight treated/mean tumor weight control×100), evaluated during and after drug treatment. Drug tolerability was assessed in tumor-bearing mice as either lethal toxicity, i.e., any death in treated mice occurring before any control death, or percentage body weight loss (BWL %)=100−(body weight on day x/body weight on day 1×100), where x represents a day after or during the treatment period.

[13] = system: H460 spontaneous lung metastasis; experiment: H460 xenograft, spontaneous lung metastasis (antimetastatic activity); type: in vivo, athymic Swiss nude mice; details: topotecan 1 mg/kg, compound of example 2 30 mg/kg p.o.
Method: At day 63, tumor-bearing mice were sacrificed by cervical dislocation and their lungs were removed and weighed. Lung lobes were spliced between two glass slides and the metastatic nodules were macroscopically counted against a bright light (Corti C, J. Cancer Res. Clin. Oncol. 122, 154-60, 1996). […] Reading of metastasis was performed by two independent observers, unaware of the experimental group, with an interobserver reproducibility >95%. The metastatic nature of these areas was confirmed by histological analysis of digital images obtained by Image Analysis System software (Delta System, Rome, Italy).

[14] = Drug tolerability in H460 tumor-bearing mice (lethal toxicity); details: topotecan 1 mg/kg, compound of example 2 30 mg/kg p.o., 8 weeks
Method: as §11, §12

[15] = Homo sapiens, HT-29, 72 h, read-out: Antiproliferative activity (IC50 ± S.D., μM) HT-29/Mit
[16] = Homo sapiens, HepG2, read-out: Antiproliferative activity (IC50 ± S.D., μM) HepG2
[17] = read-out: Antiproliferative activity (IC50 ± S.D., μM) HepG2

CO/C(=C\C=C\c1cc2cc(Cl)c(Cl)cc2[nH]1)C(=O)NC1CC(C)(C)N(C)C(C)(C)C1 [Example 1]
IC50 ([1]; Homo sapiens, HT-29): 3.3 ± 0.4 µM
IC50 [2, 15]: 1 µM
IC50 [3, 16]: 1.1 ± 0.1 µM

CCOc1cc(C(=O)NC2CCNCC2)ccc1-c1cc2cc(Cl)c(Cl)cc2[nH]1 [Example 4]
IC50 ([1]; Homo sapiens, HT-29): 4.7 µM
IC50 [2, 15]: 3.6 µM

CCOc1cc(C(=O)NC2CCN(C)CC2)ccc1-c1cc2cc(Cl)c(Cl)cc2[nH]1 [Example 5]
IC50 ([1]; Homo sapiens, HT-29): 3.8 µM
IC50 [2, 15]: 2.3 µM

CCOc1cc(C(=O)NC2CC(C)(C)NC(C)(C)C2)ccc1-c1nc2cc(Cl)c(Cl)cc2[nH]1 [Example 3]
IC50 ([1]; Homo sapiens, HT-29): 0.56 ± 0.26 µM
IC50 [2, 15]: 0.27 µM
IC50 [3, 16]: 0.71 ± 0.01 µM

COc1cc(C(=O)N(C)C2CC(C)(C)NC(C)(C)C2)ccc1-c1cc2cc(Cl)c(Cl)cc2[nH]1 [Example 6]
IC50 ([1]; Homo sapiens, HT-29): 4.7 µM
IC50 [2, 15]: 3.3 µM
IC50 [3, 16]: 0.92 ± 0.01 µM

CO/C1=C\C(C)=C\[C@@H](C)[C@@H](O)[C@@H](C)C/C(C)=C/C=C/[C@H](OC)[C@@H]([C@@H](C)[C@@H](O)[C@H](C)[C@@]2(O)C[C@@H](O)[C@H](C)[C@@H](C(C)C)O2)OC1=O [Bafilomycin A1, reference compound]
IC50 [4]: 0.0001 µM
IC50 [1]: 0.003 ± 0.002 µM
IC50 ([2]; read-out: Antiproliferative activity (IC50 ± S.D., μM) HT-29/Mit, 72 h. treatment): 0.005 µM
IC50 [3, 17]: < 0.006 µM

N.N.[Cl][Pt][Cl] [Cisplatin, reference compound]
IC50 [1]: 6.8 µM
IC50 [5]: 0.7 µM
IC50 [6]: 0.8 µM
IC50 [7]: 5.4 µM
IC50 [3, 17]: > 25 µM
IC50 [8]: 7.3 ± 3.3 µM
IC50 [9]: 10.1 ± 3.5 µM
IC50 [10]: 8.1 ± 2.1 µM

CC[C@@]1(O)C(=O)OCc2c1cc1n(c2=O)Cc2cc3c(CN(C)C)c(O)ccc3nc2-1 [Topotecan, reference compound]
IC50 ([1]; Homo sapiens, HT-29): 0.07 ± 0.01 µM
IC50 ([2]; Homo sapiens, HT-29, 72 h, read-out: IC50 for topotecan alone (FIG. 1 co-treatment experiment)): > 20 µM
Inhibition of tumour growth [11]: 30-40%
LCK (Log10 Cell Kill) [12]: 0.5
Max TWI (day 56) (Maximal Tumor weight inhibition achieved) [12]: 57* %
Max TWI (day 56) (Maximal Tumor weight inhibition achieved) ([12]; listed as topotecan): 57%
Lung No. Metastasis (range) ([13]; day 63): 11 (4-23)
Lung Weight (mg) (mean ± S.D.) ([13]; day 63): 169 ± 16 mg
Lung No. Metastasis (range) ([13]; day 63, listed as topotecan): reduced
Lung metastasis Inhibition % ([13]; inhibition of number of metastasis vs controls): 58%
Tox/Tot (any death in treated mice occurring before any control mice) [14]: 0/10
